Source: patent US7964627B2, “Amino arylsulfonamide compounds and their use as 5-HT6 ligands” (Suven Life Sciences Limited, priority 2007, dated 2011)
Values belong to the compound of their own block, whether it stands above or below them.

What was measured:
Human 5-HT6 receptor = target: T1, Human 5-HT6 receptor (Homo sapiens, UniProt P50406); assay: Binding assay for human 5-HT6 receptor ([3H]LSD radioligand); conditions: human recombinant receptor in HEK293 cells; for inhibition at 0.1 µM: 100 nM test compound, [3H]LSD 1.5 nM, read-out: % Inhibition of specific binding at 100 nM; for Ki: [3H]LSD
T1 construct: expressed in transfected cells; host or cells: HEK293 cells
T1 sequence (P50406 whole entry): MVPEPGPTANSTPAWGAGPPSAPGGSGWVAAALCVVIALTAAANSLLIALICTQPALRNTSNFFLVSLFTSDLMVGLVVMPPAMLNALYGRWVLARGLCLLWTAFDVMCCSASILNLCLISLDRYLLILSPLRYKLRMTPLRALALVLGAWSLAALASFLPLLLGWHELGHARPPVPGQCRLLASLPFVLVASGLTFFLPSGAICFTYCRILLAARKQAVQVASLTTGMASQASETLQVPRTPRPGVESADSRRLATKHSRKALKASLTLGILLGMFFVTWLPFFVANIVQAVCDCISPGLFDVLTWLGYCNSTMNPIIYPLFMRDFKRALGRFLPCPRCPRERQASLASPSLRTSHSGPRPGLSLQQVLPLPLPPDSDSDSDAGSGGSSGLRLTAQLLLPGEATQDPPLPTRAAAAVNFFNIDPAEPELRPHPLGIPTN
Description: Compounds can be tested according to the following the procedures.
Receptor source: Human recombinant expressed in HEK293 cells
Radioligand: [^3H]LSD (60-80 Ci/mmol)
Final ligand concentration—[1.5 nM]
Non-specific determinant: Methiothepin mesylate—[0.1 μM]
Reference compound: Methiothepin mesylate
Positive control: Methiothepin mesylate
Reactions were carried out in […] TRIS-HCl (pH 7.4) containing 10 μM MgCl2, 0.5 mM EDTA for 60 minutes at 37° C. The reaction was terminated by rapid vacuum filtration onto glass fiber filters. Radioactivity trapped onto the filters was determined and compared to control values in order to ascertain any interactions of test compound(s) with the cloned serotonin 5-HT6 binding site.
Percent Inhibition of Specific Binding at 100 nM Concentrations
Literature Reference: Monsma F. J. Jr., et al., Molecular Cloning and Expression of Novel Serotonin Receptor with High Affinity for Tricyclic Psychotropic Drugs. Mol. Pharmacol. (43): 320-327 (1993).

Male Wister rats = assay: Object recognition task model (NORT); format: in vivo; conditions: p.o.; for NORT Discriminative Index (DI), treatment: vehicle value in brackets in the cell; for NORT Inference: 10 and 30 mg/kg
Description: The cognition-enhancing properties of compounds of this invention were estimated using a model of animal cognition: the object recognition task model. Male Wister rats (230-280 grams) obtained from N.I.N. (National Institute of Nutrition, Hyderabad, India) were used as experimental animals. Four animals were housed in each cage. Animals were kept on 20% food deprivation before one day and given water ad libitum throughout the experiment and maintained on a 12 hours light/dark cycle. Also the rats were habituated to individual arenas for 1 hour in the absence of any objects.
One group of 12 rats received vehicle (1 mL/Kg) orally and another set of animals received compound of the formula (I) either orally or i.p., before one hour of the familiar (T1) and choice trial (T2).
The experiment was carried out in a 50×50×50 cm open field made up of acrylic. In the familiarization phase, (T1), the rats were placed individually in the open field for 3 minutes, in which two identical objects (plastic bottles, 12.5 cm height×5.5 cm diameter) covered in yellow masking tape alone (a1 and a2) were positioned in two adjacent corners, 10 cm. from the walls. After 24 hours of the (T1) trial for long-term memory test, the same rats were placed in the same arena as they were placed in T1 trial. Choice phase (T2) rats were allowed to explore the open field for 3 minutes in presence of one familiar object (a3) and one novel object (b) (Amber color glass bottle, 12 cm high and 5 cm in diameter). Familiar objects presented similar textures, colors and sizes. During the T1 and T2 trial, explorations of each object (defined as sniffing, licking, chewing or having moving vibrissae whilst directing the nose towards the object at a distance of less than 1 cm) were recorded separately by stopwatch. Sitting on an object was not regarded as exploratory activity, however, it was rarely observed. T1 is the total time spent exploring the familiar objects (a1+a2). T2 is the total time spent exploring the familiar object and novel object (a3+b).
The object recognition test was performed as described by Ennaceur, A., Delacour, J., 1988, A new one-trial test for neurobiological studies of memory in rats-Behavioral data, Behav. Brain Res., 31, 47-59.

[1] = Rodent brain penetration study (steady state); format: in vivo, Male Wister rats; conditions: Wistar, brain and plasma; Wister/Male rat, 10 mg/kg, Oral, vehicle water; read-out: Steady State Brain Penetration Cb/Cp
rats = assay: Water maze, scopolamine induced reversal; format: in vivo; conditions: p.o.
Description: The water maze apparatus consisted of a circular pool (1.8 m diameter, 0.6 m high) constructed in black Perspex (TSE systems, Germany) filled with water (24±2° C.) and positioned underneath a wide-angled video camera to track animal. The 10 cm^2 perspex platform, lying 1 cm below the water surface, was placed in the centre of one of the four imaginary quadrants, which remained constant for all rats. The black Perspex used in the construction of the maze and platform offered no intramaze cues to guide escape behavior. By contrast, the training room offered several strong extramaze visual cues to aid the formation of the spatial map necessary for escape learning. An automated tracking system, [Videomot 2 (5.51), TSE systems, Germany] was employed. This program analyzes video images acquired via a digital camera and an image acquisition board that determined path length, swim speed and the number of entries and duration of swim time spent in each quadrant of the water maze.

[2] = Rodent pharmacokinetic study; format: in vivo, Male wistar rats; conditions: plasma, Wistar/Male rat, 10 mg/kg; for AUC(0-t) / Cmax / Tmax / half-life: vehicle water; for bioavailability: Oral vs Intravenous
Description: Male wistar rats (230-280 grams) obtained from NIN (National Institute of Nutrition, Hyderabad, India) were used as an experimental animal.
Three to five animals were housed in each cage. Animals were kept fasted over night and maintained on a 12 hours light/dark cycle. Three rats were dosed NCE (10 mg/Kg) orally and intravenously on day 0 and day 2.
At each time point blood was collected by jugular vein. Plasma was stored frozen at −20° C. until analysis. The concentrations of the NCE compound in plasma were determined using LC-MS/MS method.
Schedule time points: Pre dose 0.25, 0.5, 1, 1.5, 2, 3, 4, 6, 8, 10, 12 and 24 hours after dosing (n=3). The NCE compounds were quantified in plasma by validated LC-MS/MS method using solid phase extraction technique. NCE compounds were quantified in the calibration range of 2-2000 ng/ml in plasma. Study samples were analyzed using calibration samples in the batch and quality control samples spread across the batch.
Pharmacokinetic parameters Cmax, Tmax, AUCt, AUCinf, half life, volume of distribution, clearance, mean residence time and thereby oral bioavailability were calculated by non-compartmental model using software WinNonlin version 5.1.

[3] = system: animal models for schizophrenia; conditions: Pouzet et al. 2002; cited from earlier work
5-HT6 receptor = conditions: literature; cited from earlier work

inhibition at 0.1 µM (Human 5-HT6 receptor): 96%
SMILES: CN(C)CCNc1cccc(S(=O)(=O)n2ccc3ccc(Cl)cc32)c1 [Example 23, N′-[3-(6-Chloroindole-1-sulfonyl)phenyl]-N,N-dimethyl ethane-1,2-diamine]

Ki (Human 5-HT6 receptor): 17.3 nM
SMILES: COc1ccc2c(c1)c(C)cn2S(=O)(=O)c1ccc(C)c(NCCN(C)C)c1 [Example 8, N′-[5-(5-Methoxy-3-methylindole-1-sulfonyl)-2-methylphenyl]-N,N-dimethyl ethane-1,2-diamine]

inhibition at 0.1 µM (Human 5-HT6 receptor): 56.4%
SMILES: CCc1ccc(S(=O)(=O)n2cc(C)c3cc(OC)ccc32)cc1NCCN(C)C [Example 15, N′-[2-Ethyl-5-(5-methoxy-3-methylindole-1-sulfonyl)phenyl]-N,N-dimethyl ethane-1,2-diamine]

inhibition at 0.1 µM (Human 5-HT6 receptor): 95.6%
Ki (Human 5-HT6 receptor): 3.02 nM
SMILES: COc1ccc(S(=O)(=O)n2cc(Cl)c3ccccc32)cc1NCCN(C)C [Example 3, N′-[5-(3-Chloroindole-1-sulfonyl)-2-methoxyphenyl]-N,N-dimethyl ethane-1,2-diamine]

Kp [1]: 13.5 ± 4.28
inhibition at 0.1 µM (Human 5-HT6 receptor): 93%
Ki (Human 5-HT6 receptor): 1.52 nM
AUC(0-t) ([2]; Intravenous): 2860 ± 442 ng·h/mL
Cmax ([2]; Intravenous): 1960 ± 458 ng/mL
Tmax ([2]; Intravenous): 4.8 min
half-life ([2]; Intravenous): 202 ± 17.4 min
bioavailability [2]: 6 ± 1%
AUC(0-t) ([2]; Oral): 158 ± 20 ng·h/mL
Cmax ([2]; Oral): 36 ± 8 ng/mL
Tmax ([2]; Oral): 79.8 ± 34.8 min
half-life ([2]; Oral): 136 ± 12 min
SMILES: COc1ccc(S(=O)(=O)n2cc(C)c3ccccc32)cc1NCCN(C)C [Example 5, N′-[2-Methoxy-5-(3-methylindole-1-sulfonyl)phenyl]-N,N-dimethyl ethane-1,2-diamine]
NORT Discriminative Index (DI), treatment (Male Wister rats; 10 mg/kg): 0.46 (0.52)
NORT Discriminative Index (DI), treatment (Male Wister rats; 30 mg/kg): 0.58 (0.56)
NORT Inference (Male Wister rats): Active
Scopolamine Induced Reversal (active dose) (rats): ≧3 mg/kg, p.o.

inhibition at 0.1 µM (Human 5-HT6 receptor): 76%
SMILES: CCc1ccc(S(=O)(=O)n2ccc3cc(OC)ccc32)cc1NCCN(C)C [Example 26, N′-[2-Ethyl-5-(5-methoxyindole-1-sulfonyl)phenyl]-N,N-dimethyl ethane-1,2-diamine]

SMILES: COc1ccc(NS(=O)(=O)c2sc3ccc(Cl)cc3c2C)cc1N1CCNCC1 [SB-271046, 5-Chloro-N-(4-methoxy-3-piperazin-1-ylphenyl)-3-methyl-2-benzothiophenesulfonamide]
Activity in animal tests related to positive or negative symptoms of schizophrenia [3]: inactive

Ki (Human 5-HT6 receptor): 41 nM
SMILES: COc1ccc2c(ccn2S(=O)(=O)c2ccc(C)c(NCCCN(C)C)c2)c1 [Example 9, N′-[5-(5-Methoxyindole-1-sulfonyl)-2-methylphenyl]-N,N-dimethyl propane-1,3-diamine]

Ki (Human 5-HT6 receptor): 7.34 nM
SMILES: COc1ccc(S(=O)(=O)n2cc(C)c3cc(F)ccc32)cc1NCCCN(C)C [Example 33, N′-[2-Methoxy-5-(5-fluoro-3-methylindole-1-sulfonyl)phenyl]-N,N-dimethyl propane-1,3-diamine]

inhibition at 0.1 µM (Human 5-HT6 receptor): 100%
SMILES: Cc1ccc(S(=O)(=O)n2ccc3ccc(Cl)cc32)cc1NCCN(C)C [Example 20, N′-[5-(6-Chloroindole-1-sulfonyl)-2-methylphenyl]-N,N-dimethyl ethane-1,2-diamine]

SMILES: CN1CCN2c3ccccc3Cc3ccccc3C2C1 (centres unmarked) [mianserin]
Affinity for the 5-HT6 receptor (5-HT6 receptor): high affinity

inhibition at 0.1 µM (Human 5-HT6 receptor): 84.9%
SMILES: COc1ccc2c(c1)c(Cl)cn2S(=O)(=O)c1ccc(OC)c(NCCN(C)C)c1 [Example 2, N′-[5-(3-Chloro-5-methoxyindole-1-sulfonyl)-2-methoxyphenyl]-N,N-dimethyl ethane-1,2-diamine]

Kp [1]: 20.2 ± 1.84
inhibition at 0.1 µM (Human 5-HT6 receptor): 90.5%
Ki (Human 5-HT6 receptor): 1.22 nM
AUC(0-t) ([2]; Intravenous): 1870 ± 338 ng·h/mL
Cmax ([2]; Intravenous): 1590 ± 538 ng/mL
Tmax ([2]; Intravenous): 4.8 min
half-life ([2]; Intravenous): 176 ± 77.4 min
bioavailability [2]: 5 ± 2%
AUC(0-t) ([2]; Oral): 88 ± 48 ng·h/mL
Cmax ([2]; Oral): 41 ± 19 ng/mL
Tmax ([2]; Oral): 34.8 ± 22.8 min
half-life ([2]; Oral): 117 ± 43.8 min
SMILES: COc1ccc(S(=O)(=O)n2ccc3ccccc32)cc1NCCN(C)C [Example 4, N′-[5-(Indole-1-sulfonyl)-2-methoxyphenyl]-N,N-dimethyl ethane-1,2-diamine]

SMILES: CN(C)CCC=C1c2ccccc2CCc2ccccc21 [amitriptyline]
Affinity for the 5-HT6 receptor (5-HT6 receptor): high affinity

inhibition at 0.1 µM (Human 5-HT6 receptor): 70.7%
SMILES: CCc1ccc(S(=O)(=O)n2ccc3cc(F)ccc32)cc1NCCN(C)C [Example 13, N′-[2-Ethyl-5-(5-fluoroindole-1-sulfonyl)phenyl]-N,N-dimethyl ethane-1,2-diamine]

Ki (Human 5-HT6 receptor): 18.9 nM
SMILES: COc1ccc2c(c1)c(C)cn2S(=O)(=O)c1ccc(OC)c(NCCCN(C)C)c1 [Example 35, N′-[2-Methoxy-5-(5-methoxy-3-methylindole-1-sulfonyl)phenyl]-N,N-dimethyl propane-1,3-diamine]

Kp [1]: 3.48 ± 0.27
Ki (Human 5-HT6 receptor): 2.92 nM
AUC(0-t) ([2]; Intravenous): 3480 ± 650 ng·h/mL
Cmax ([2]; Intravenous): 1730 ± 682 ng/mL
Tmax ([2]; Intravenous): 4.8 min
half-life ([2]; Intravenous): 163 ± 24 min
bioavailability [2]: 19 ± 7%
AUC(0-t) ([2]; Oral): 674 ± 320 ng·h/mL
Cmax ([2]; Oral): 140 ± 76.8 ng/mL
Tmax ([2]; Oral): 140 ± 91.8 min
half-life ([2]; Oral): 304 ± 197 min
SMILES: COc1ccc(S(=O)(=O)n2cc(C)c3ccccc32)cc1NCCCN(C)C [Example 31, N′-[2-Methoxy-5-(3-methylindole-1-sulfonyl)phenyl]-N,N-dimethyl propane-1,3-diamine]
NORT Discriminative Index (DI), treatment (Male Wister rats; 10 mg/kg): 0.54 (0.48)
NORT Discriminative Index (DI), treatment (Male Wister rats; 30 mg/kg): 0.52 (0.52)
NORT Inference (Male Wister rats): Active
Scopolamine Induced Reversal (active dose) (rats): ≧30 mg/kg, p.o.

inhibition at 0.1 µM (Human 5-HT6 receptor): 82.9%
SMILES: COc1ccc2c(c1)c(C)cn2S(=O)(=O)c1ccc(OC)c(NCCN(C)C)c1 [Example 1, N′-[2-Methoxy-5-(5-methoxy-3-methylindole-1-sulfonyl)phenyl]-N,N-dimethyl ethane-1,2-diamine]
